The test system of test [1] is MV4-11. Kind of test: Induction of apoptosis in human MV4-11 cells assessed as necrotic cells at 5 uM measured after 1 hrs by Annexin V-FITC/7-AAD staining based flow cytometric analysis (reference value: 0.068%). Type of test: functional. A general note: Flow cytometry measures light scatter and fluorescence of single cells or particles in a stream.
The target in test [2] is T1, Tyrosine-protein phosphatase non-receptor type 11 (Homo sapiens, UniProt Q06124).
T1 sequence (Q06124 whole entry): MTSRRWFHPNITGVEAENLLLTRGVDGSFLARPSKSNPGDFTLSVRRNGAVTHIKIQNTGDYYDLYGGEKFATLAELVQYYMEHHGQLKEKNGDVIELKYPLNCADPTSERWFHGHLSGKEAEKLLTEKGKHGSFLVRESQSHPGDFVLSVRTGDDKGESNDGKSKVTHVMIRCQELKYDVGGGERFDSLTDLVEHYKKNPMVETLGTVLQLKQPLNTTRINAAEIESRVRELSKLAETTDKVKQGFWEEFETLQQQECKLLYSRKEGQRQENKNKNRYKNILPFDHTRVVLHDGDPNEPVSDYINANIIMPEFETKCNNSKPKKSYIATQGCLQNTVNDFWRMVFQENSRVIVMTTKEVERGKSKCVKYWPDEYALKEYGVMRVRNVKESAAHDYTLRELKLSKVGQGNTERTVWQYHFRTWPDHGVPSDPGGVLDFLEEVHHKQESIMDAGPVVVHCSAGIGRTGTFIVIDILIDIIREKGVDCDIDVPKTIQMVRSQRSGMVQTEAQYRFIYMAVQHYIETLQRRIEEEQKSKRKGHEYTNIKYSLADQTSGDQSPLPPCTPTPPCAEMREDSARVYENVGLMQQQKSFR
Briefly: Inhibition of full length wild type recombinant human IRS-1 peptide activated SHP2 (1 to 525 residues) using DIPMUP as substrate preincubated for 30 mins followed by substrate addition and measured after 30 mins by fluorescence based analysis.

Test [3] relates to MV4-11. Briefly: Induction of apoptosis in human MV4-11 cells assessed as necrotic cells at 5 uM measured after 4 hrs by Annexin V-FITC/7-AAD staining based flow cytometric analysis (reference value: 0.041%). Type of test: functional.
Test [4] deals with MV4-11. Kind of test: Induction of apoptosis in human MV4-11 cells assessed as early apoptotic cells at 5 uM measured after 4 hrs by Annexin V-FITC/7-AAD staining based flow cytometric analysis (reference value: 2.13%). Type of test: functional.
Test [5] is described as follows: Inhibition of full length recombinant human SHP2 E76A mutant (1 to 525 residues) using DIPMUP as substrate preincubated for 30 mins followed by substrate addition and measured after 30 mins by fluorescence based analysis.
Another test concerns MDA-MB-468. Briefly: Antiproliferative activity against human MDA-MB-468 cells assessed as inhibition of cell growth measured after 72 hrs by CCK8 method. Type of test: functional, cell-based. Conditions: MDA-MB-468, 72 h.
For test [6], the system named is MV4-11. Briefly: Induction of apoptosis in human MV4-11 cells assessed as necrotic cells at 5 uM measured after 4 hrs by Annexin V-FITC/7-AAD staining based flow cytometric analysis (reference value: 0.068%). Type of test: functional.
Test [7] deals with T1, Tyrosine-protein phosphatase non-receptor type 11. Kind of test: Inhibition of recombinant human SHP2 PTPase activity (219 to 525 residues) using DIPMUP as substrate preincubated for 30 mins followed by substrate addition and measured after 30 mins by fluorescence based analysis.
Test [8] relates to MV4-11. Kind of test: Induction of apoptosis in human MV4-11 cells assessed as late apoptotic cells at 1.25 uM measured after 4 hrs by Annexin V-FITC/7-AAD staining based flow cytometric analysis (reference value: 1.58%). Type of test: functional.
Test [9] concerns MV4-11. Kind of test: Induction of apoptosis in human MV4-11 cells assessed as viable cells at 2.5 uM measured after 4 hrs by Annexin V-FITC/7-AAD staining based flow cytometric analysis (reference value: 95.9%). Type of test: functional. Conditions: read-out: Activity.
The test system of test [10] is MV4-11. Briefly: Induction of apoptosis in human MV4-11 cells assessed as late apoptotic cells at 2.5 uM measured after 4 hrs by Annexin V-FITC/7-AAD staining based flow cytometric analysis (reference value: 1.58%). Type of test: functional.
The test system of test [11] is MV4-11. Kind of test: Induction of apoptosis in human MV4-11 cells assessed as viable cells at 5 uM measured after 1 hrs by Annexin V-FITC/7-AAD staining based flow cytometric analysis (reference value: 96.8%). Type of test: functional. The settings on record: read-out: Activity.

As usually defined, the IC50 is the concentration that gives 50% inhibition. Regarding `C[C@@H]1OCC2(CCN(c3nnc(Sc4cccc(Cl)c4Cl)s3)CC2)[C@@H]1N`, the Activity is 0.91% in the test with MV4-11 [1]; 1.55% in the test with MV4-11 [3]; 10.8% in the test with MV4-11 [4]; 1.38% in the test on MV4-11 [6]; 1.93% in the test on MV4-11 [8]; 2.3% with MV4-11 [10]. Further, the IC50 was 250 nM in test [2], 1380 nM in test [5], 14600 nM with MDA-MB-468 and above 50000 nM in [7]. Moreover, the viability at 2.5 µM with MV4-11 [9] amounted to 96.7%. Moreover, the viability at 5 µM with MV4-11 [11] was determined as 90%.

The record behind these values is ChEMBL document CHEMBL5620403, “Design, synthesis, activity and molecular dynamics studies of 1,3,4-thiadiazole derivatives as selective allosteric inhibitors of SHP2 for the treatment of cancer” (Eur J Med Chem, 2023).
